Key:
P. berghei sporozoites = format: cell-based; conditions: for LBI (TM90-C2B/Pb): liver blood index LBI = TM90-C2B/Pb; for LBI (W2/Pb): liver blood index LBI = W2/Pb
J774 cell lines = test: cytotoxicity in J774 cells, 96 well plate format; format: cell-based; conditions: Mus musculus, J774, read-out: EC50 J774 (internal controls)
[1] = system: Plasmodium berghei-GFP parasites; test: modified Thompson test in mice; conditions: 10 mg/kg oral on days 3, 4, 5 in HEC/Tween; vs untreated control animals
[2] = system: P. berghei / P. cynomolgi infections; conditions: cited from earlier work
P. falciparum TM90-C2B = test: microbe, parasite or virus in culture; format: cell-based; conditions: Plasmodium falciparum, TM90, read-out: EC50 TM90-C2B

Compound	LBI (TM90-C2B/Pb) (P. berghei sporozoites)	LBI (W2/Pb) (P. berghei sporozoites)	further results
COC(=O)c1c[nH]c2cc(F)ccc2c1=O [Compound 6n]	<3.95	<0.262	–
O=c1cc[nH]c2cc(OCCOc3ccccc3)ccc12 [Compound 8a]	<21.7	<16.8	–
COC(=O)c1c[nH]c2ccc(-c3ccccc3)cc2c1=O [Compound 6u]	<40.1	<11.7	–
C[C@H]1[C@@H](O)O[C@@H]2O[C@@]3(C)CC[C@H]4[C@H](C)CC[C@@H]1[C@@]24OO3 [DHA, dihydroartemisinin]	–	–	EC50 (J774 cell lines): 1.53 µM
CCN(CC)CCCC(C)Nc1ccnc2cc(Cl)ccc12 (stereo not shown) [CQ, Chloroquine]	–	–	EC50 (J774 cell lines): 47.2 µM
COC(=O)c1c[nH]c2cc(OCCCc3ccccc3)ccc2c1=O [Compound 6j]	>149	–	–
CCCc1cc2c(=O)c(C(=O)OC)c[nH]c2cc1OCCOc1ccccc1 [Compound 6x]	>707	>2.62	–
CCCCc1ccc2[nH]ccc(=O)c2c1 [Compound 8c]	>31.4	–	–
CCCCc1cc2c(=O)c(C(=O)OC)c[nH]c2cc1OCCOc1ccccc1 [Compound 6b]	–	–	Inhibition (%) Day 6 PE [1]: <1%; dose producing radical cures [2]: 15 mg/kg
CCCCCc1cc2c(=O)c(C(=O)OC)c[nH]c2cc1OCCOc1ccccc1 [Compound 6y]	>123	>0.33	–
O=C1C(O)=C([C@H]2CC[C@H](c3ccc(Cl)cc3)CC2)C(=O)c2ccccc21 [ATO, atovaquone]	–	–	EC50 (J774 cell lines): 23.8 µM; EC50 (P. falciparum TM90-C2B): 0.0184 µM
COC(=O)c1c[nH]c2ccc(OC)cc2c1=O [Compound 6o]	>134	–	–

Source: paper PMC9233739 (Journal of medicinal chemistry, 2016)
